Reference: US20220133833A1, “USE OF GRAPE AND/OR SOY SUPPLEMENTS AGAINST COVID-19 AND 92 OTHER VIRUSES AND BACTERIA INCLUDING OTHER UNKNOWN VIRUSES AND BACTERIA” (priority 2020, published 2022)
Read-outs that look alike come from different tables or passages of the source.

System: H1N1 virus
[1] = one-week preventive treatment, 0.2 ml/0.4 ml/mouse iv/ip QD, till the end of the study

APOA-1 [RAAS-2]
prevention of the Bird Flu Epidemiology in Mice (mice, H1N1): 100%
protection from body weight loss [1]: totally protected
protection from death [1]: totally protected
protection of body weight loss compared with oseltamivir treatment (preventive treatment): even better than that by oseltamivir treatment
adverse finding / tolerance (therapeutic group (G2), some of the mice, day 5 post H1N1 challenge and afterward): haematuria
protection from body weight loss (therapeutic treatment, 0.2 ml/0.4 ml iv/ip QD, all 5 mice, days 2 to 5 post H1N1 infection): partial
mice protected from death (therapeutic treatment, 0.2 ml/0.4 ml iv/ip QD, group of 5 mice): one mouse out of 5 mice
